According to PMC6694038, “Pharmacogenomic–pharmacokinetic study of selective estrogen-receptor modulators with intra-patient dose escalation in breast cancer” (Breast Cancer (Tokyo, Japan), 2019):

Columns and labels:
[1] = weighting of plasma concentration; cited from earlier work
[2] = patients homozygous for CYP2D6 PM genotype on double dose (40 mg) of TAM; cited from earlier work
[3] = Plasma concentrations of TAM, TOR and their metabolites by LC–MS/MS (screening study)
[4] = 14 poor TAM metabolizers enrolled in the dose-escalation study
[5] = patients on TAM 20 mg a day, N=182

For `CC/C(=C(\c1ccc(O)cc1)c1ccc(OCCNC)cc1)c1ccccc1` [Endoxifen, endoxifen], the “In vitro activity factor in the total activity of TAM (TAM = 1.0)” value [1] is given as 46.3, the “Endoxifen concentration relative to EMs” value [2] is given as “less than one-half of the endoxifen concentrations for EMs” and the “Endoxifen on TAM 20 mg, max” value [3, 4] is given as 12.6 ng/mL. The “Endoxifen on TAM 20 mg, mean” value [3, 4] was 9.7 ng/mL, the “Endoxifen on TAM 20 mg, median” value [3, 4] was 10.4 ng/mL and the “Endoxifen on TAM 20 mg, min” value [3, 4] was 1.8 ng/mL. The “Patients with endoxifen levels lower than 15 ng/mL” value ([3]; among the 182 patients on TAM) was 50, the “Patients with endoxifen levels < 7.5 ng/mL” value ([3]; of the 273 participating patients) was 11 and the “Plasma concentration, max” value [3, 5] was 64.5 ng/mL. For the same compound, the “Plasma concentration, mean” value [3, 5] was 23.5 ng/mL, the “Plasma concentration, median” value [3, 5] was 22.8 ng/mL and the “Plasma concentration, min” value [3, 5] was 1.8 ng/mL. The “Plasma concentration, variability (range)” value ([3]; patients taking TAM 20 mg a day) was 1.8 to 64.5 ng/mL.
